Results: patent US20230000813A1, “COMPOUND FOR THE TREATMENT OF BOVINE OR SWINE RESPIRATORY DISEASE” (Intervet Inc., priority 2016, published 2023)
Converted amounts (≈) assume the structure as drawn.

Experiments:
Test in all cases: MIC, broth-microdilution (CLSI VET01-A4)
Format in all cases: cell-based
[1] = system: Mannheimia haemolytica MH 13065 (XB0446-6003.9, BRD field isolate)
Method: (§1) The Minimum inhibitory concentrations (MIC) of compounds according to the invention for a number of veterinary bacterial pathogens were determined by the broth-microdilution method according to CLSI document VET01-A4.
(§2) Microdilution trays containing a doubling dilution series of the test compound were used for the tests. The MIC results were interpreted according to the CLSI documents VET01-S3. The lowest concentration of compound at which no visible growth (i.e. no turbidity) detected by the unaided eye was recorded as the MIC.

[2] = system: Mannheimia haemolytica MH 13093 (XB0472-6014.1, BRD field isolate)
Method: as §1, §2

[3] = system: Pasteurella multocida PM 6267 (P 2225 (L386), reference strain, mouse infection strain); settings: Pasteurella multocida PM 6267
Method: as §1, §2
(§3) The Minimum inhibitory concentrations (MIC) of compounds according to the invention were determined by the broth-microdilution method according to CLSI document VET01-A4.
(§4) Microdilution trays containing a doubling dilution series of the test compound were used for the tests.
(§5) The MIC results were interpreted according to the CLSI documents VET01-S3. The lowest concentration of compound at which no visible growth (i.e. no turbidity) detected by the unaided eye was recorded as the MIC.

[4] = system: Mannheimia haemolytica MH 12587 (1071, BRD field isolate, macrolide-resistance: erm+, E+); settings: Mannheimia haemolytica MH 12587, macrolide-resistant
Method: as §1, §2, §3, §4, §5

[5] = system: Pasteurella multocida PM 6391 (ATCC 43137, reference strain); settings: Pasteurella multocida PM 6391
Method: as §1, §2, §3, §4, §5

[6] = system: Pasteurella multocida PM 12080 (IV102277-0093, BRD field isolate); settings: Pasteurella multocida PM 12080
Method: as §1, §2, §3, §4, §5

[7] = system: Mannheimia haemolytica MH 6374 (ATCC 33396, reference strain); settings: Mannheimia haemolytica MH 6374; for MIC: read-out: MIC MH 6374
Method: as §1, §2, §3, §4, §5

[8] = system: Pasteurella multocida PM 10775 (080130003051, BRD field isolate); settings: Pasteurella multocida PM 10775
Method: as §1, §2, §3, §4, §5

[9] = system: Mannheimia haemolytica MH 6357 (M7/2, reference strain, cattle infection strain); settings: Mannheimia haemolytica MH 6357; for MIC: read-out: MIC MH 6357
Method: as §1, §2, §3, §4, §5

[10] = system: Mannheimia haemolytica MH 10720 (154, BRD field isolate); settings: Mannheimia haemolytica MH 10720
Method: as §1, §2, §3, §4, §5

Compound | MIC [1] [µM] | MIC [2] [µM] | MIC PM 6267 [3] | MIC MH 12587 [4] [µM] | MIC ([5]; read-out: MIC PM 6391) [µM] | MIC ([6]; read-out: MIC PM 12080) [µM] | MIC [7] [µM] | MIC PM 10775 [8] | MIC [9] [µM] | MIC PM 12080 [6] | MIC MH 10720 [10] | MIC MH 13065 [1] | MIC MH 13093 [2] | MIC PM 6391 [5] | MIC MH 6374 [7] | MIC MH 6357 [9]
C[C@@H](O)[C@H](NC(=O)c1ccc(C#Cc2ccc(CNC3CCC3)s2)cc1)C(=O)NO [Compound 402] | 0.4 (≈ 0.171 µg/mL) | 0.8 (≈ 0.342 µg/mL) | <=0.1 μM | 1.6 (≈ 0.684 µg/mL) | 0.2 (≈ 0.0855 µg/mL) | 0.4 (≈ 0.171 µg/mL) | 0.8 (≈ 0.342 µg/mL) | <=0.1 μM | 0.8 (≈ 0.342 µg/mL) |  |  |  |  |  |  | 
CC(C)C(NC(=O)c1ccc(C#Cc2ccc(CNCC#N)cc2)cc1)C(=O)NO (stereo not drawn) [Compound 346] | 0.2 (≈ 0.0809 µg/mL) | 0.4 (≈ 0.162 µg/mL) | <=0.1 μM | 0.8 (≈ 0.324 µg/mL) |  |  | 0.4 (≈ 0.162 µg/mL) | <=0.1 μM | 0.4 (≈ 0.162 µg/mL) | <=0.1 μM | <=0.1 μM |  |  |  |  | 
C#CCNCc1ccc(C#Cc2ccc(C(=O)NC(C(=O)NO)C(C)(C)N)cc2)cc1 (racemic) [Compound 626] | 0.4 (≈ 0.167 µg/mL) | 0.8 (≈ 0.335 µg/mL) | <=0.1 μM | 0.8 (≈ 0.335 µg/mL) |  |  | 0.4 (≈ 0.167 µg/mL) | <=0.1 μM | 0.8 (≈ 0.335 µg/mL) | <=0.1 μM | <=0.1 μM |  |  |  |  | 
C[C@@H](O)[C@H](NC(=O)c1ccc(C#Cc2ccc(CNCc3cccs3)s2)cc1)C(=O)NO [Compound 410] |  |  | <=0.1 μM | 0.2 (≈ 0.0939 µg/mL) |  |  |  | <=0.1 μM |  | <=0.1 μM |  | <=0.1 μM | <=0.1 μM | <=0.1 μM | <=0.1 μM | <=0.1 μM
C[C@@H](O)[C@H](NC(=O)c1ccc(C#Cc2ccc(CNC3CC3)s2)cc1)C(=O)NO [Compound 398] | 0.2 (≈ 0.0827 µg/mL) | 0.2 (≈ 0.0827 µg/mL) | <=0.1 μM | 0.4 (≈ 0.165 µg/mL) |  |  | 0.8 (≈ 0.331 µg/mL) | <=0.1 μM | 0.4 (≈ 0.165 µg/mL) | <=0.1 μM |  |  |  | <=0.1 μM |  | 
C[C@@H](O)[C@H](NC(=O)c1ccc(C#Cc2ccc(CNCc3ccccn3)s2)cc1)C(=O)NO [Compound 408] | 0.4 (≈ 0.186 µg/mL) | 0.4 (≈ 0.186 µg/mL) | <=0.1 μM | 0.8 (≈ 0.372 µg/mL) |  |  | 0.4 (≈ 0.186 µg/mL) | <=0.1 μM | 0.4 (≈ 0.186 µg/mL) | <=0.1 μM |  |  |  | <=0.1 μM |  | 
C[C@@H](O)[C@H](NC(=O)c1ccc(C#Cc2ccc(CNCc3ccco3)nc2)cc1)C(=O)NO [Compound 424] | 0.4 (≈ 0.179 µg/mL) | 0.8 (≈ 0.359 µg/mL) | <=0.1 μM | 1.6 (≈ 0.718 µg/mL) |  |  | 1.6 (≈ 0.718 µg/mL) | <=0.1 μM | 0.8 (≈ 0.359 µg/mL) | <=0.1 μM |  |  |  | <=0.1 μM |  | 
C[C@@H](O)[C@H](NC(=O)c1ccc(C#Cc2ccc(CNCc3cccs3)nc2)cc1)C(=O)NO [Compound 425] | 0.4 (≈ 0.186 µg/mL) | 0.8 (≈ 0.372 µg/mL) | <=0.1 μM | 0.8 (≈ 0.372 µg/mL) |  |  | 0.8 (≈ 0.372 µg/mL) | <=0.1 μM | 0.8 (≈ 0.372 µg/mL) | <=0.1 μM |  |  |  | <=0.1 μM |  | 
Cc1ccc(CNCc2ccc(C#Cc3ccc(C(=O)N[C@H](C(=O)NO)[C@@H](C)O)cc3)s2)cc1 [Compound 411] |  | 0.2 (≈ 0.0955 µg/mL) | <=0.1 μM | 0.4 (≈ 0.191 µg/mL) |  |  |  | <=0.1 μM | 0.2 (≈ 0.0955 µg/mL) | <=0.1 μM |  | <=0.1 μM |  | <=0.1 μM | <=0.1 μM | 
C[C@@H](O)[C@H](NC(=O)c1ccc(C#Cc2ccc(CNCc3ccco3)s2)cc1)C(=O)NO [Compound 409] |  | 0.2 (≈ 0.0907 µg/mL) | <=0.1 μM | 0.4 (≈ 0.181 µg/mL) |  |  |  | <=0.1 μM | 0.2 (≈ 0.0907 µg/mL) | <=0.1 μM |  | <=0.1 μM |  | <=0.1 μM | <=0.1 μM | 
